Measurements as given in US7419966B2, “[5-carboxamido or 5-fluoro]-[2′,3′-unsaturated or 3′-modified]-pyrimidine nucleosides” (Emory University, priority 1995, dated 2008).
Read-outs that look alike come from different tables or passages of the source.

How the values were obtained:
Type in all cases: cell-based
HIV-1 (strain LAV) = assay: Anti-HIV-1 activity in PHA-stimulated human PBM cells (reverse transcriptase readout)
Experimental: The ability of nucleosides to inhibit HIV can be measured by various experimental techniques. The technique used herein, and described in detail below, measures the inhibition of viral replication in phytohemagglutinin (PHA) stimulated human peripheral blood mononuclear (PBM) cells infected with HIV-1. (strain LAV). The amount of virus produced is determined by measuring the virus-coded reverse transcriptase enzyme. The amount of enzyme produced is proportional to the amount of virus produced.
Three-day-old phytohemagglutinin-stimulated PBM cells (10^6 cells/ml) from hepatitis B and HIV-1 seronegative healthy donors were infected with HIV-1 (strain LAV) at a concentration of about 100 times the 50% tissue culture infectious dose (TICD 50) per ml and cultured in the presence and absence of various concentrations of antiviral compounds.
Approximately one hour after infection, the medium, with the compound to be tested (2 times the final concentration in medium) or without compound, was added to the flasks (5 ml; final volume 10 ml). AZT was used as a positive control.
The cells were exposed to the virus (about 2×10^5 dpm/ml, as determined by reverse transcriptase assay) and then placed in a CO2 incubator. HIV-1 (strain LAV) was obtained from the Center for Disease Control, Atlanta, Ga. The methods used for culturing the PBM cells, harvesting the virus and determining the reverse transcriptase activity were those described by McDougal et al. (J. Immun. Meth. 76, 171-183, 1985) and Spira et al. (J. Clin. Meth. 25, 97-99, 1987), except that fungizone was not included in the medium (see Schinazi, et al., Antimicrob. Agents Chemother. 32, 1784-1787 (1988); Id., 34:1061-1067 (1990)).
On day 6, the cells and supernatant were transferred to a 15 ml tube and centrifuged at about 900 g for 10 minutes. Five ml of supernatant were removed and the virus was concentrated by centrifugation at 40,000 rpm for 30 minutes (Beckman 70.1 Ti rotor). The solubilized virus pellet was processed for determination of the levels of reverse transcriptase. Results are expressed in dpm/ml of sampled supernatant. Virus from smaller volumes of supernatant (1 ml) can also be concentrated by centrifugation prior to solubilization and determination of reverse transcriptase levels.

[1] = system: hepatitis B virus in transfected HepG-2 (2.2.15) cells; assay: Anti-HBV activity in 2.2.15 cell cultures (HBV virion DNA and replicative intermediates); conditions: for EC50 / EC90: Table 2, day 9; for activity against HBV, in words: text b71, b81
Experimental: The ability of the active compounds to inhibit the growth of virus in 2.2.15 cell cultures (HepG2 cells transformed with hepatitis virion) can be evaluated as described in detail below.
A summary and description of the assay for antiviral effects in this culture system and the analysis of HBV DNA has been described (Korba and Milman, 1991, Antiviral Res., 15:217). The antiviral evaluations were performed on two separate passages of cells. All wells, in all plates, were seeded at the same density and at the same time.
Due to the inherent variations in the levels of both intracellular and extracellular HBV DNA, only depressions greater than 3.5-fold (for HBV virion DNA) or 3.0-fold (for HBV DNA replication intermediates) from the average levels for these HBV DNA forms in untreated cells are considered to be statistically significant [P<0.05]. The levels of integrated HBV DNA in each cellular DNA preparation (which remain constant on a per cell basis in these experiments) were used to calculate the levels of intracellular HBV DNA forms, thereby ensuring that equal amounts of cellular DNA were compared between separate samples.
Typical values for extracellular HBV virion DNA in untreated cells ranged from 50 to 150 pg/ml culture medium (average of approximately 76 pg/ml). Intracellular HBV DNA replication intermediates in untreated cells ranged from 50 to 100 pg/μg cell DNA (average approximately 74 pg/μg cell DNA). In general, depressions in the levels of intracellular HBV DNA due to treatment with antiviral compounds are less pronounced, and occur more slowly, than depressions in the levels of HBV virion DNA (Korba and Milman, 1991, Antiviral Res., 15:217).

[2] = system: 2.2.15 cells (HepG2 cells transformed with hepatitis virion); assay: Toxicity in 2.2.15 cells by neutral red dye uptake; conditions: for toxicity, in words: HBV assay; for IC50: Table 2, 2.2.15 cells, read-out: Cytotoxicity IC50 ± SD
Experimental: Toxicity analyses were performed to assess whether any observed antiviral effects were due to a general effect on cell viability. The method used herein was the measurement of the uptake of neutral red dye, a standard and widely used assay for cell viability in a variety of virus-host systems, including HSV and HIV. Toxicity analyses were performed in 96-well flat bottomed tissue culture plates. Cells for the toxicity analyses were cultured and treated with test compounds with the same schedule as described for the antiviral evaluations below. Each compound was tested at 4 concentrations, each in triplicate cultures (wells “A”, “B”, and “C”). Uptake of neutral red dye was used to determine the relative level of toxicity. The absorbance of internalized dye at 510 nm (Asin) was used for the quantitative analysis. Values are presented as a percentage of the average Asin values in 9 separate cultures of untreated cells maintained on the same 96-well plate as the test compounds. Dye uptake in the 9 control cultures on plate 5 ranged from 91.6% to 110.4%, and on plate 6 from 96.6% to 109%.

[3] = system: uninfected human PBM cells; assay: Toxicity in mitogen-stimulated uninfected human PBM cells (cell count, trypan blue exclusion)
Experimental: Mitogen stimulated uninfected human PBM cells (3.8×10^5 cells/ml) were cultured in the presence and absence of drug under similar conditions as those used for the antiviral assay described above. The cells were counted after 6 days using a hemacytometer and the trypan blue exclusion method, as described by Schinazi et al., Antimicrobial Agents and Chemotherapy, 22(3), 499 (1982). […]

CEM cells = assay: Toxicity in CEM cells
Vero cells = assay: Toxicity in Vero cells
HSV-1F = assay: Anti-HSV-1 activity in Vero cells; conditions: Table 1
various cell lines = assay: Toxicity in various cell lines (PBM, CEM, Vero); conditions: various cell lines
HIV-2ROD2 = assay: Anti-HIV-2 activity in PBMC
SIVSMM = assay: Anti-SIV activity in PBMC
[4] = Table 1, HIV-1LAI, human PBM cells, estimated 10% error factor, read-out: Anti-HIV-1 in PBMC EC50
[5] = extracellular DNA, untreated control 102 pg/ml, read-out: HBV virion EC50 ± SD
[6] = extracellular DNA, untreated control 102 pg/ml, read-out: HBV virion EC90 ± SD
[7] = replicative intermediates (intracellular DNA), untreated control 87 pg/μg cell DNA, read-out: HBV RI EC50 ± SD
[8] = replicative intermediates (intracellular DNA), untreated control 87 pg/μg cell DNA, read-out: HBV RI EC90 ± SD
[9] = Table 1, uninfected human PBM cells, 6 days

| Molecule | EC50 (HIV-1 (strain LAV); [4]) [µM] | IC50 [3, 9] [µM] | IC50 (CEM cells; Table 1) [µM] | IC50 (Vero cells; Table 1) [µM] | further results |
| --- | --- | --- | --- | --- | --- |
| 5-carboxylic acid amide-2′,3′-dideoxy-3′-thiacytidine [C Carboxamide (+)-β-D] | 8.5 |  |  |  | EC50 [1, 5]: 0.11 ± 0.012 µM; EC90 [1, 6]: 0.9 ± 0.1 µM; EC50 [1, 7]: 0.5 ± 0.04 µM; EC90 [1, 8]: 3.8 ± 0.3 µM; activity against HBV, in words [1]: significant activity against HBV; toxicity, in words [2]: relatively nontoxic; IC50 [2]: 1120 ± 72 µM |
| 5-carboxylic acid amide-2′,3′-dideoxy-3′-thiacytidine [C Carboxamide (±)-β-DL] |  | > 100 | > 100 | > 100 | EC50 (HIV-1 (strain LAV); HIV-1 in PBM cells, read-out: median effective concentration (antiviral activity)): 0.77 µM; EC50 (HSV-1F): > 100 µM; toxicity (no toxicity up to) (various cell lines): > 100 µM |
| Nc1cn([C@@H]2CS[C@H](CO)O2)c(=O)nc1N (racemic) [C Amino (±)-β-DL] | 26.4 | > 100 | > 100 | > 100 |  |
| N#Cc1cn([C@@H]2CS[C@H](CO)O2)c(=O)nc1N (racemic) [C Cyano (±)-β-DL] | > 100 | > 100 | > 100 | > 100 |  |
| CCc1cn([C@@H]2CS[C@H](CO)O2)c(=O)nc1N (racemic) [C Ethyl (±)-β-DL] | 102 | > 100 | > 100 | > 100 |  |
| C#Cc1cn([C@@H]2CS[C@H](CO)O2)c(=O)nc1N (racemic) [C Ethynyl (±)-β-DL] | > 100 | > 100 | > 100 | > 100 |  |
| COC(=O)c1cn(C2CSC(CO)O2)c(=O)nc1N (racemic) [C Methoxycarbonyl (±)-β-DL, 5-carboxylic acid methyl ester-2′,3′-dideoxy-3′-thiacytidine] | 38.9 | > 100 | > 100 | > 100 |  |
| CN(C)C(=O)c1cn([C@@H]2CS[C@H](CO)O2)c(=O)nc1N (racemic) [C N,N-Dimethylaminoformyl (±)-β-DL] | > 100 | > 100 | > 100 | > 100 |  |
| CNC(=O)c1cn([C@@H]2CS[C@H](CO)O2)c(=O)nc1N (racemic) [C N-Methylaminoformyl (±)-β-DL] | > 100 | > 100 | > 100 | > 100 |  |
| Nc1nc(=O)n([C@@H]2CS[C@H](CO)O2)cc1[N+](=O)[O-] (racemic) [C Nitro (±)-β-DL] | 100 | > 100 | > 100 | > 100 |  |
| Nc1cn([C@@H]2CS[C@H](CO)O2)c(=O)[nH]c1=O (racemic) [U Amino (±)-β-DL] | 119 | > 100 | > 100 | > 100 |  |
| NC(=O)c1cn([C@@H]2CS[C@H](CO)O2)c(=O)[nH]c1=O (racemic) [U Carboxamide (±)-β-DL, 5-carboxamide-2′,3′-dideoxy-3′-thiauridine] | > 100 | > 100 | > 100 | > 100 |  |
| N#Cc1cn([C@@H]2CS[C@H](CO)O2)c(=O)[nH]c1=O (racemic) [U Cyano (±)-β-DL] | > 100 | > 100 | > 100 |  |  |
| CCc1cn([C@@H]2CS[C@H](CO)O2)c(=O)[nH]c1=O (racemic) [U Ethyl (±)-β-DL] | > 100 | > 100 | > 100 | > 100 |  |
| C#Cc1cn([C@@H]2CS[C@H](CO)O2)c(=O)[nH]c1=O (racemic) [U Ethynyl (±)-β-DL] | 23.8 | > 100 | > 100 | > 100 |  |
| COC(=O)c1cn([C@@H]2CS[C@H](CO)O2)c(=O)[nH]c1=O (racemic) [U Methoxycarbonyl (±)-β-DL] | > 100 | > 100 | > 100 | > 100 | EC50 (HSV-1F): > 100 µM |
| O=c1[nH]c(=O)n([C@@H]2CS[C@H](CO)O2)cc1[N+](=O)[O-] (racemic) [U Nitro (±)-β-DL] | 122 | > 100 | > 100 | > 100 |  |
| Nc1ccn([C@@H]2CS[C@H](CO)O2)c(=O)n1 (single isomer, unassigned) [3TC, (−)-enantiomer of 2-hydroxymethyl-5-(cytosin-1-yl)-1,3-oxathiolane, reference compound] | 0.002 | > 100 | > 100 | > 100 | EC50 (HIV-1 (strain LAV); Table 3, HIV-1LAI, estimated 10% error factor, read-out: Anti-HIV-1 in PBMC EC50): 0.002 µM; IC50 ([3]; Table 3): > 100 µM; IC50 (CEM cells; Table 3): > 100 µM; IC50 (Vero cells; Table 3): > 100 µM; EC50 (HSV-1F): > 100 µM; EC50 (HIV-2ROD2; Table 3, HIV-2ROD2, read-out: Anti-HIV-2 in PBMC EC50): 0.02 µM; EC50 (SIVSMM; Table 3, SIVSMM, read-out: Anti-SIV in PBMC EC50): 0.02 µM |
| Nc1nc2c(ncn2COCCO)c(=O)[nH]1 [Acyclovir, reference compound] |  |  |  |  | EC50 (HSV-1F; Human alphaherpesvirus 1, Vero): 0.04 µM |
| NC(=O)c1cn([C@@H]2CS[C@H](CO)O2)c(=O)nc1N [C Carboxamide (−)-β-L, 5-carboxylic acid amide-2′,3′-dideoxy-3′-thiacytidine] | 3.6 | > 100 | > 100 | > 100 | EC50 (HIV-2ROD2; Table 1 footnote b, read-out: EC50 against HIV-2ROD2): 1.6 µM; EC50 (SIVSMM; Table 1 footnote b, read-out: EC50 against SIVSMM): 4 µM; EC50 [1, 5]: 0.29 ± 0.02 µM; EC90 [1, 6]: 1.5 ± 0.2 µM; EC50 [1, 7]: 1.3 ± 0.1 µM; EC90 [1, 8]: 9.9 ± 0.8 µM; activity against HBV, in words [1]: significant activity against HBV; toxicity, in words [2]: relatively nontoxic; IC50 [2]: 1750 ± 212 µM |
